Test results reported in the supplement of paper PMC11665569.
± gives the standard deviation of the averaged measurements.

Key:
MIAPACA2 = test: relative viability (fraction of vehicle control); higher = more viable / less inhibited; conditions: treatment time: 5 days
Description: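 CCK-8 viability of MIAPACA2 cells with empty vector or constitutively active YAP S127A, treated with KRAS G12C inhibitors for 5 days, normalised to vehicle control.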

KYSE410 = test: as above; conditions: treatment time: 5 days
Description: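 CCK-8 viability of KYSE410 cells transfected with control, YAP/TAZ or TEAD1-4 siRNAs and treated with KRAS G12C inhibitors for 5 days. Values are normalised to vehicle control.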

C=CC(=O)N1CCN(c2nc(=O)n(-c3c(C)ccnc3C(C)C)c3nc(-c4c(O)cccc4F)c(F)cc23)[C@@H](C)C1 [AMG510]
relative viability (MIAPACA2; log10 concentration (uM): 0, ectopic expression: YAP S127A): 0.773 ± 0.0088
relative viability (MIAPACA2; log10 concentration (uM): 0, ectopic expression: empty vector (YAP experiment)): 0.0894 ± 0.0063
relative viability (MIAPACA2; log10 concentration (uM): 1, ectopic expression: YAP S127A): 0.727 ± 0.084
relative viability (MIAPACA2; log10 concentration (uM): 1, ectopic expression: empty vector (YAP experiment)): 0.106 ± 0.0058
relative viability (MIAPACA2; log10 concentration (uM): 1.301029996, ectopic expression: YAP S127A): 0.285 ± 0.026
relative viability (MIAPACA2; log10 concentration (uM): 1.301029996, ectopic expression: empty vector (YAP experiment)): 0.047 ± 0.0069
relative viability (MIAPACA2; log10 concentration (uM): -1, ectopic expression: YAP S127A): 0.861 ± 0.027
relative viability (MIAPACA2; log10 concentration (uM): -1, ectopic expression: empty vector (YAP experiment)): 0.128 ± 0.0098
relative viability (MIAPACA2; log10 concentration (uM): -1.30103, ectopic expression: YAP S127A): 0.91 ± 0.013
relative viability (MIAPACA2; log10 concentration (uM): -1.30103, ectopic expression: empty vector (YAP experiment)): 0.237 ± 0.051
relative viability (MIAPACA2; log10 concentration (uM): -2, ectopic expression: YAP S127A): 0.988 ± 0.091
relative viability (MIAPACA2; log10 concentration (uM): -2, ectopic expression: empty vector (YAP experiment)): 0.79 ± 0.17
relative viability (MIAPACA2; log10 concentration (uM): -2.30103, ectopic expression: YAP S127A): 1.03 ± 0.025
relative viability (MIAPACA2; log10 concentration (uM): -2.30103, ectopic expression: empty vector (YAP experiment)): 0.906 ± 0.068
relative viability (MIAPACA2; log10 concentration (uM): -3, ectopic expression: YAP S127A): 1.05 ± 0.15
relative viability (MIAPACA2; log10 concentration (uM): -3, ectopic expression: empty vector (YAP experiment)): 1.03 ± 0.016
relative viability (MIAPACA2; log10 concentration (uM): -4, ectopic expression: YAP S127A): 1 ± 0.18
relative viability (MIAPACA2; log10 concentration (uM): -4, ectopic expression: empty vector (YAP experiment)): 1 ± 0.079
relative viability (KYSE410; log10 concentration (uM): 0, siRNA knockdown: TEAD1-4 siRNA 1): 0.586 ± 0.025
relative viability (KYSE410; log10 concentration (uM): 0, siRNA knockdown: TEAD1-4 siRNA 2): 0.488 ± 0.038
relative viability (KYSE410; log10 concentration (uM): 0, siRNA knockdown: YAP/TAZ siRNA 1): 0.416 ± 0.019
relative viability (KYSE410; log10 concentration (uM): 0, siRNA knockdown: YAP/TAZ siRNA 2): 0.353 ± 0.036
relative viability (KYSE410; log10 concentration (uM): 0, siRNA knockdown: negative control siRNA): 0.695 ± 0.0059
relative viability (KYSE410; log10 concentration (uM): 1, siRNA knockdown: TEAD1-4 siRNA 1): 0.181 ± 0.014
relative viability (KYSE410; log10 concentration (uM): 1, siRNA knockdown: TEAD1-4 siRNA 2): 0.118 ± 0.015
relative viability (KYSE410; log10 concentration (uM): 1, siRNA knockdown: YAP/TAZ siRNA 1): 0.141 ± 0.017
relative viability (KYSE410; log10 concentration (uM): 1, siRNA knockdown: YAP/TAZ siRNA 2): 0.137 ± 0.012
relative viability (KYSE410; log10 concentration (uM): 1, siRNA knockdown: negative control siRNA): 0.382 ± 0.017
relative viability (KYSE410; log10 concentration (uM): 1.301029996, siRNA knockdown: TEAD1-4 siRNA 1): 0.0525 ± 0.013
relative viability (KYSE410; log10 concentration (uM): 1.301029996, siRNA knockdown: TEAD1-4 siRNA 2): 0.0471 ± 0.013
relative viability (KYSE410; log10 concentration (uM): 1.301029996, siRNA knockdown: YAP/TAZ siRNA 1): 0.0378 ± 0.0039
relative viability (KYSE410; log10 concentration (uM): 1.301029996, siRNA knockdown: YAP/TAZ siRNA 2): 0.0518 ± 0.0073
relative viability (KYSE410; log10 concentration (uM): 1.301029996, siRNA knockdown: negative control siRNA): 0.164 ± 0.0062
relative viability (KYSE410; log10 concentration (uM): -1, siRNA knockdown: TEAD1-4 siRNA 1): 0.691 ± 0.11
relative viability (KYSE410; log10 concentration (uM): -1, siRNA knockdown: TEAD1-4 siRNA 2): 0.63 ± 0.13
relative viability (KYSE410; log10 concentration (uM): -1, siRNA knockdown: YAP/TAZ siRNA 1): 0.59 ± 0.021
relative viability (KYSE410; log10 concentration (uM): -1, siRNA knockdown: YAP/TAZ siRNA 2): 0.489 ± 0.013
relative viability (KYSE410; log10 concentration (uM): -1, siRNA knockdown: negative control siRNA): 0.749 ± 0.017
relative viability (KYSE410; log10 concentration (uM): -1.30103, siRNA knockdown: TEAD1-4 siRNA 1): 0.727 ± 0.12
relative viability (KYSE410; log10 concentration (uM): -1.30103, siRNA knockdown: TEAD1-4 siRNA 2): 0.664 ± 0.11
relative viability (KYSE410; log10 concentration (uM): -1.30103, siRNA knockdown: YAP/TAZ siRNA 1): 0.643 ± 0.04
relative viability (KYSE410; log10 concentration (uM): -1.30103, siRNA knockdown: YAP/TAZ siRNA 2): 0.522 ± 0.024
relative viability (KYSE410; log10 concentration (uM): -1.30103, siRNA knockdown: negative control siRNA): 0.775 ± 0.015
relative viability (KYSE410; log10 concentration (uM): -2, siRNA knockdown: TEAD1-4 siRNA 1): 0.946 ± 0.078
relative viability (KYSE410; log10 concentration (uM): -2, siRNA knockdown: TEAD1-4 siRNA 2): 1.02 ± 0.076
relative viability (KYSE410; log10 concentration (uM): -2, siRNA knockdown: YAP/TAZ siRNA 1): 0.841 ± 0.058
relative viability (KYSE410; log10 concentration (uM): -2, siRNA knockdown: YAP/TAZ siRNA 2): 0.713 ± 0.012
relative viability (KYSE410; log10 concentration (uM): -2, siRNA knockdown: negative control siRNA): 0.884 ± 0.013
relative viability (KYSE410; log10 concentration (uM): -2.30103, siRNA knockdown: TEAD1-4 siRNA 1): 0.967 ± 0.075
relative viability (KYSE410; log10 concentration (uM): -2.30103, siRNA knockdown: TEAD1-4 siRNA 2): 0.941 ± 0.14
relative viability (KYSE410; log10 concentration (uM): -2.30103, siRNA knockdown: YAP/TAZ siRNA 1): 0.929 ± 0.025
relative viability (KYSE410; log10 concentration (uM): -2.30103, siRNA knockdown: YAP/TAZ siRNA 2): 0.7753 ± 0.0064
relative viability (KYSE410; log10 concentration (uM): -2.30103, siRNA knockdown: negative control siRNA): 0.9373 ± 0.0086
relative viability (KYSE410; log10 concentration (uM): -3, siRNA knockdown: TEAD1-4 siRNA 1): 1.21 ± 0.052
relative viability (KYSE410; log10 concentration (uM): -3, siRNA knockdown: TEAD1-4 siRNA 2): 1.19 ± 0.12
relative viability (KYSE410; log10 concentration (uM): -3, siRNA knockdown: YAP/TAZ siRNA 1): 0.996 ± 0.023
relative viability (KYSE410; log10 concentration (uM): -3, siRNA knockdown: YAP/TAZ siRNA 2): 0.961 ± 0.039
relative viability (KYSE410; log10 concentration (uM): -3, siRNA knockdown: negative control siRNA): 0.953 ± 0.019
relative viability (KYSE410; log10 concentration (uM): -4, siRNA knockdown: TEAD1-4 siRNA 1): 1.08 ± 0.031
relative viability (KYSE410; log10 concentration (uM): -4, siRNA knockdown: TEAD1-4 siRNA 2): 1.32 ± 0.087
relative viability (KYSE410; log10 concentration (uM): -4, siRNA knockdown: YAP/TAZ siRNA 1): 1.03 ± 0.039
relative viability (KYSE410; log10 concentration (uM): -4, siRNA knockdown: YAP/TAZ siRNA 2): 0.998 ± 0.016
relative viability (KYSE410; log10 concentration (uM): -4, siRNA knockdown: negative control siRNA): 0.951 ± 0.013
